The term IC50 denotes the midpoint of a concentration-inhibition curve. One may read the EC50 as the concentration needed to bring the measured effect to its halfway point.

In brackets after ≈: the same amount, converted by molar mass. Where two headings read alike, the source gives them in different places.

From patent US5079239A, “Sterol disulfates and methods of use” (Harbor Branch Oceanographic Institution, Inc., priority 1990, dated 1992) come the findings set out here.

The nature of data set [1]: Cytotoxicity scoring in coronavirus A59 assay. It is filed as cell-based. The settings on record: mouse, nctc 1469 cells, read-out: toxicity. From the text:
(§1) The antiviral assay for A59 is a cytopathic test (CPE). Susceptible cells are infected with the virus at a dose that infects most of the cells and produces CPE. The characteristic CPE observed is the formation of syncytia. Compounds and extracts which inhibit the CPE are referred to as active samples.
(§2) 1. NCTC clone 1469 is a derivative of mouse liver.
100%=complete cell destruction
75%=partial cell destruction
50%=partial cell destruction
25%=partial cell destruction

A further data set has as its system CRFK cells. As to the kind of experiment: Toxicity for CRFK cells (neutral red or MTT assay), FeLV test. In kind it is cell-based. How it is done:
A. Determination of Toxicity of Samples for CRFK Cells with Neutral Red Assay or MTT Assay
This assay is a modification of a procedure provided in detail by Dr. Ellen Borenfreund from Rockefeller University. Borenfreund, E., and J. A. Puerner (1984) "A Simple Quantitative Procedure Using Monolayer Cultures for Cytotoxicity Assays (HTD/NR-90)," J. Tissue Culture Methods 9:7-9.
b. MTT is diluted in D-MEM maintenance medium at a concentration of 1 mg per ml. For the toxicity test 75 microliters are added to each well of a 96-well plate without removing any medium. The plates are incubated for 6 hours at 37° C. At the end of the incubation period the medium is removed. If the cell layer is adherent, plates are not centrifuged to bring the cells down. CRFK is an adherent cell line, and for the MTT assay, no centrifugation is required. To each well 200 microliters of isopropyl alcohol are added. The formazan crystals are dissolved. After mixing, the plates are read with a plate reader at a wavelength of 570 nm. Toxicity percentages are determined the same as for neutral red.
(§3) Antiviral activity on crude extracts is expressed by percent antiviral activity or by using the minus and plus values stated above. The EC50 of an antiviral drug represents the concentration of drug that results in 50% reduction of the viral cytopathic effect and the IC50 represents the concentration resulting in 50% growth inhibition. These values are determined from graphs constructed from the raw data. The in vitro therapeutic index (TI) is the ratio of IC50 /EC50.
On the technique in general: Tetrazolium dyes change colour on reduction, which living cells bring about.

In data set [2] the test system is feline leukemia virus (FeLV). Kind of data set: Feline leukemia virus (FeLV) antiviral drug test. In kind it is cell-based. The settings on record: for EC50: Feline leukemia virus; for TI: in vitro therapeutic index, ratio of IC50/EC50, FeLV; for activity against the feline leukemia virus: result in words, Tables 1 through 3.
Description: Feline leukemia viruses belong to the retrovirus family. Diseases caused by members of this family in cats have clinical manifestations similar to symptoms observed in humans with diseases caused by the human immunodeficiency viruses. Feline leukemia virus was selected as a representative member of the retrovirus family to use as a model for drug testing to search for compounds effective in preventing viral infection and replication. Cell lines were provided by Hansen Veterinary Immunology, and reagents and protocols for the ELISA assay can be purchased from the same company.
as §3

Data set [3] relates to mouse coronavirus A59 (MHV-A59). As to the kind of experiment: Antiviral assay for mouse coronavirus A59 (CPE). In kind it is cell-based, mouse hepatitis virus strain MHV-A59. Set-up: key to activity: +++: complete inhibition of CPE and cell fusion; ++: partial inhibition; +: partial inhibition; +/-: partial inhibition; -: no protection. The method, then:
as §1, §2
1. Mouse hepatitis virus strain MHV-A59 classified as a coronavirus.
1. Dilute drug or extract for test in the appropriate solvent.
2. Add 20 μl per tube or well.
3. Allow the solvent to evaporate under the laminar flow hood.
4. Dilute the MHV-A59 in Dulbecco's phosphate buffered saline with Ca^++ and Mg^++ to the appropriate predetermined dilution for the lot number currently in use.
5. Remove medium from wells of 24 well plate containing NCTC 1469 cells seeded 24 hours earlier.
6. Medium can be removed by pouring the fluid from the plate and blotting it on a sterile towel.
7. Add 200 lambda of diluted virus to each test well. Add PBS to control wells.
8. Incubate cells and virus for 1 hour at 37° C.
9. Pour off supernatant at end of incubation period.
10. To each glass tube add 10 lambda of dimethyl sulfoxide (DMSO). The purpose for the DMSO is to solubilize the drug. If it is known that the drug under test is water soluble, then the DMSO is not necessary. However, in cases of testing unknown compounds, DMSO may be added, but DMSO causes some toxicity. Since differences have been noted with and without DMSO, the preferred technique is to test the sample under both conditions.
11. Add 1 ml of maintenance medium to each glass tube.
12. Pour the contents of the glass tube into the corresponding well of the tissue culture plate.
13. Incubate infected cells at 37° C. and read the following day.
14. At 12 hours, areas of cell fusion are quite apparent and can be detected both visually and microscopically.
15. […]
To assist in visual interpretation of the data, the antiviral activity is scored from a minus to a three plus based on the percentage of inhibition of viral cytopathic effects. […]

Data set [4] can be described thus: 50% growth inhibition (toxicity) in HIV assay. In kind it is cell-based. How it is done: as §3
Data set [5] relates to human immunodeficiency virus (HIV). As to the kind of experiment: HIV (AIDS virus) antiviral assay. In kind it is cell-based. How it is done:
as §3

A further data set has as its system murine splenocytes. As to the kind of experiment: Two-way mixed lymphocyte reaction (MLR). It is filed as cell-based, mouse (BALB/c and C57BL/6J). The method, then: The pure compound was tested in the two-way mixed lymphocyte reaction (MLR) and a lymphocyte viability assay (LCV) at 500, 50, 5, and 0.5 μg/ml, using murine splenocytes. Cellular proliferation was measured using incorporation of ^3 H-thymidine. Responses were reported as a percent of the positive MLR or LCV control.
1. Murine splenocyte suspensions were prepared separately from BALB/c and C57BL/6J mice. Spleens were aseptically removed and homogenized in RPMI 1640 tissue culture medium (TCM), supplemented with 10% fetal calf serum, 2% 1-glutamine, 15 mM HEPES, 1% antibiotic-antimycotic solution, and 25 μg/ml gentamycin (GIBCO). The cell concentrations were adjusted to 2.5×10^6 cells/ml. Aliquots of each cell population were removed to separate tubes, and the remaining two cell suspensions combined to one tube.
2. Serial, log10 dilutions of the pure compound were made in absolute ethanol, and 10 μl of each dilution were added to wells of microtiter test plates, and allowed to dry.
3. A volume of 0.2 ml of the combined splenocyte suspensions was added to triplicate test wells. Positive control wells received combined splenocyte suspensions in the absence of the test compounds. Negative control wells consisted of separate (not mixed) splenocyte suspensions cultured in the absence of the test compounds.
4. Plates were incubated in 5% CO2 at 37° C. for 86 hours.
5. A volume of 0.05 ml of ^3 H-thymidine (20 (μCi/ml) was added to each well, and the plates incubated in 5% CO2 at 37° C. for an additional 5 hours.
6. The contents of each well of the microtiter plates were harvested onto glass fiber filter strips, and the resulting filter discs placed in scintillation vials to which 2.0 ml of scintillation fluid was added.
7. The amount of incorporated ^3 H-thymidine was determined by counting the vials in a liquid scintillation counter.
8. Triplicate counts were averaged, and the data reported as a percentage of the positive control.

The next data set concerns P388. Kind of data set: Standard P388 assay (tumor cell growth inhibition). In kind it is cell-based. From the text: HB100 has also been tested to determine its activity in inhibiting the growth of tumor cells.
The mark [6] stands for this setting: FeLV assay, 50% growth inhibition, molar value, read-out: IC50 (in parentheses).

Take `CCCC12OC3CC4C5CCC6CC(OS(=O)(=O)O)C(OS(=O)(=O)O)CC6(C)C5CCC4(C)C3C(C)(O1)C(CC1(C(C)C)CC1C)O2` (stereo not drawn) [HB124]: the cytotoxicity in data set [1] (2 μg) was determined as 0%; in data set [1] (20 μg) it was 25%. In addition, the IC50 in the data set on CRFK cells is > 50 µg/mL; with CRFK cells (setting [6]), > 68 µM. This molecule also showed a concentration giving a half-maximal response (EC50) in data set [2] of 6.25 µg/mL (≈ 8.87 µM). The TI in data set [2] was > 8. Besides, in data set [2], the “activity against the feline leukemia virus” value is recorded as “showed activity against the feline leukemia virus”. In addition, the activity entry in data set [3] (2 μg) is “-”; in data set [3] (20 μg), “++”. Also, the “inhibition of viral growth” value in data set [3] (20 μg, result in words) was “significantly inhibit viral growth”.

Regarding `CC(C)C1(CCC(C)(O)C2C(O)CC3C4CCC5CC(OS(=O)(=O)O)C(OS(=O)(=O)O)CC5(C)C4CCC32C)CC1C` (stereo not drawn) [HB99], the IC50 in the data set with CRFK cells was 350 µg/mL; in the data set on CRFK cells (setting [6]), 514 µM; in data set [4] it was 350 µg/mL (≈ 550 µM). The molecule further showed an EC50 in data set [2] of 20 µg/mL (≈ 31.4 µM). Further, the TI in data set [2] amounted to 17.5; in data set [5] (in vitro therapeutic index, ratio of IC50/EC50, HIV), 70. Moreover, the “activity against the feline leukemia virus” value in data set [2] is “showed activity against the feline leukemia virus”. Further, in data set [5] (result in words), the “activity against the AIDS virus” value is given as “showed activity against the AIDS virus”. Moreover, the activity at 0.05 µg/mL with murine splenocytes (Mus musculus, Splenocyte, 0.05 μg/ml, percent of positive control) turned out to be 126%. Also, the activity at 5 µg/mL in the data set on murine splenocytes (Mus musculus, Splenocyte, 5.00 μg/ml, percent of positive control) was 98%. Moreover, in the data set on murine splenocytes (Mus musculus, Splenocyte, 50.00 μg/ml, percent of positive control), the activity at 50 µg/mL is 19%. In addition, in the data set with murine splenocytes (Mus musculus, Splenocyte, 500.00 μg/ml, percent of positive control), the activity at 500 µg/mL was found to be 0%. Also, in the data set on murine splenocytes (at 50 μg/ml and 5 μg/ml, result in words), the “immunosuppressive activity (MLR <100% and LCV >70%)” value is “exhibited immunosuppressive activity”.

`CC(CCC1(C(C)C)CC1C)C1C(O)CC2C3CCC4CC(OS(=O)(=O)O)C(OS(=O)(=O)O)CC4(C)C3CCC21CO` (stereo not drawn) [HB100] gave an IC50 in the data set with CRFK cells of 185 µg/mL. In the data set with CRFK cells (setting [6]), the concentration for half-maximal inhibition (IC50) is 272 µM. For the same molecule, in data set [2], a half-maximal effect (EC50) was put at 26 µg/mL (≈ 40.8 µM), the TI came to 7.1 and the “activity against the feline leukemia virus” value was “showed activity against the feline leukemia virus”. In the data set on P388 (Mus musculus, standard P388 assay), the half-inhibitory concentration (IC50) is 0.1 µg/mL (≈ 0.157 µM). The “inhibition of growth of tumor cells” value with P388 (result in words) was “inhibit the growth of tumor cells”.
